Measurements published in patent publication US20240150321A1, “PYRAZOLYLSULFONAMIDE COMPOUNDS AND THEIR USE IN THERAPY” (HOTSPOT THERAPEUTICS, INC., priority 2022, published 2024).
Read-outs that look alike come from different tables or passages of the source.

How the values were obtained:
Avi-tagged FL MALT-1 = Avi-tagged FL MALT-1 (Homo sapiens (Human), UniProt Q9UDY8); assay: MALT-1 Fluorogenic Peptide Cleavage Assay (MALT1 inhibition assay); type: biochemical; details: Ac-LRSR-AMC peptide substrate, 30 min pre-incubation, 90 min reaction at room temperature
Chain of Avi-tagged FL MALT-1 (Q9UDY8 whole entry): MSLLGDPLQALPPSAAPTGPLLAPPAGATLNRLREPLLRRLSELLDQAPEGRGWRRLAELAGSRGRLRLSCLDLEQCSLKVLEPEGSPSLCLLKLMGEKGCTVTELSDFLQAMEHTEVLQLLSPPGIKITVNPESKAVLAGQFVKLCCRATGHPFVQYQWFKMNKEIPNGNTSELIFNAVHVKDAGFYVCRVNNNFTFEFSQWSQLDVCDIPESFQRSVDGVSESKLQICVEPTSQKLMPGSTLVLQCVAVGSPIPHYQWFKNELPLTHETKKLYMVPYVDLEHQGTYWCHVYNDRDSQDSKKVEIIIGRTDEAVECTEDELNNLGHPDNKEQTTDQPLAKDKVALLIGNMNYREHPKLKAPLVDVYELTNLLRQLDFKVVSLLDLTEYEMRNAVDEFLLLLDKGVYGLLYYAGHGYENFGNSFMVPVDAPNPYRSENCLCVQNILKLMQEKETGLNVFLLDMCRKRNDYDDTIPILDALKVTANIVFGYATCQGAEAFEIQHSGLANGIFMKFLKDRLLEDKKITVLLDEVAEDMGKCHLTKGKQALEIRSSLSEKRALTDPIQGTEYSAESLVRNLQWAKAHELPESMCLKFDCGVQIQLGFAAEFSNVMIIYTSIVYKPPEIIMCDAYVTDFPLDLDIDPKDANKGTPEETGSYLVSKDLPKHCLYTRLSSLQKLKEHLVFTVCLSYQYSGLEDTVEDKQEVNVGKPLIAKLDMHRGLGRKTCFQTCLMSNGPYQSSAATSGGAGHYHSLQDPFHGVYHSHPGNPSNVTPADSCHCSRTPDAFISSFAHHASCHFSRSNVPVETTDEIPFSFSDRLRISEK
Procedure, shortened: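 Cleavage of Ac-LRSR-AMC, read as fluorescence at 342/441 nm after 90 min at room temperature, with substrate working stocks of 50 μM (Km) or 280 μM (10×Km). Enzyme, Avi-tagged full-length MALT-1 (40 nM stock), was first pre-incubated 30 min with compound in citrate/HEPES pH 6.89 buffer with TCEP, EDTA, CHAPS and 2% DMSO; IC50 fitted from normalised % inhibition.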

[1] = tested on: NF-kB reporter in Jurkat cells; assay: NF-kB reporter assay in Jurkat cells stimulated with aCD3/aCD28/PMA; type: cell-based; details: read-out: NF-kB Reporter Assay IC50
Procedure, shortened: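 Luminescence (One-Glo) from the NF-kB reporter yielded IC50 values. Stimulation lasted 4 h at 37° C with aCD3, aCD28 and PMA (final 5, 5 and 0.03 […]), after 1 h compound pre-exposure of 25,000 Jurkat cells per well in serum-free RPMI.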

[2] = Homo sapiens, Jurkat cells, 1 hr compound pre-incubation, aCD3/aCD28/PMA stimulation 4 hr, One-Glo readout
[3] = Jurkat cells, 1 hr compound pre-incubation, aCD3/aCD28/PMA stimulation 4 hr, One-Glo readout

| SMILES | IC50 (Avi-tagged FL MALT-1) | IC50 [1, 2] | IC50 [1, 3] | IC50 ([1]; Homo sapiens, Jurkat) |
| --- | --- | --- | --- | --- |
| Cn1ncc2ccc(OC(F)(F)F)c(NS(=O)(=O)c3cnn(-c4cc(C(F)(F)F)ccn4)c3)c21 [Compound I-327, N-[1-methyl-6-(trifluoromethoxy)indazol-7-yl]-1-[4-(trifluoromethyl)pyridin-2-yl]pyrazole-4-sulfonamide] | ≤ 400 nM | – | – | < 400 nM |
| COC[C@@](C)(F)c1ccnc(-n2cc(S(=O)(=O)Nc3cccc4cnn(C)c34)cn2)c1 [Compound I-331, (S)-1-(4-(2-fluoro-1-methoxypropan-2-yl)pyridin-2-yl)-N-(1-methyl-1H-indazol-7-yl)-1H-pyrazole-4-sulfonamide] | > 2500 nM | < 400 nM | – | – |
| CN1C(=O)N(c2ccnc(-n3cc(S(=O)(=O)Nc4cccc5cnn(C)c45)cn3)c2)CC1(C)C [Compound I-332] | > 2500 nM | < 400 nM | – | – |
| CN1CC(C)(C)N(c2ccnc(-n3cc(S(=O)(=O)Nc4cccc5cnn(C)c45)cn3)c2)C1=O [Compound I-333] | > 2500 nM | < 400 nM | – | – |
| Cn1ncc2cccc(NS(=O)(=O)c3cnn(-c4cc([C@@]5(F)CCOC5)ccn4)c3)c21 [Compound I-334] | > 2500 nM | < 400 nM | – | – |
| Cn1ncc2cccc(NS(=O)(=O)c3cnn(-c4cc([C@]5(F)CCOC5)ccn4)c3)c21 [Compound I-335] | > 2500 nM | < 400 nM | – | – |
| Cn1ncc2ccc(OC(F)(F)F)c(N(S(=O)(=O)c3cnn(-c4cc(C(F)(F)F)ccn4)c3)S(=O)(=O)c3cnn(-c4cc(C(F)(F)F)ccn4)c3)c21 [Compound I-337, N-[1-methyl-6-(trifluoromethoxy)indazol-7-yl]-1-[4-(trifluoromethyl)pyridin-2-yl]-N-{1-[4-(trifluoromethyl)pyridin-2-yl]pyrazol-4-ylsulfonyl}pyrazole-4-sulfonamide] | > 2500 nM | > 2500 nM | – | – |
| COC[C@@H](OC)c1ccnc(-n2cc(S(=O)(=O)Nc3cccc4cnn(C)c34)cn2)c1 [Compound I-341] | > 2500 nM | < 400 nM | – | – |
| COC[C@H](OC)c1ccnc(-n2cc(S(=O)(=O)Nc3cccc4cnn(C)c34)cn2)c1 [Compound I-342] | > 2500 nM | 400 to 1000 nM | – | – |
| CN1CC(O)(c2ccnc(-n3cc(S(=O)(=O)Nc4cccc5cnn(C)c45)cn3)c2)C1 [Compound I-344] | > 2500 nM | > 2500 nM | – | – |
| CN1CCC(n2cc(S(=O)(=O)Nc3cccc4cnn(C)c34)cn2)CC1 [Compound I-345] | > 2500 nM | 400 to 1000 nM | – | – |
| C[C@H]1CN(c2ccnc(-n3cc(S(=O)(=O)Nc4cccc5cnn(C)c45)cn3)c2)C(=O)N1C [Compound I-346] | > 2500 nM | < 400 nM | – | – |
| C[C@@H]1CN(c2ccnc(-n3cc(S(=O)(=O)Nc4cccc5cnn(C)c45)cn3)c2)C(=O)N1C [Compound I-347, (R)-1-(4-(3,4-dimethyl-2-oxoimidazolidin-1-yl)pyridin-2-yl)-N-(1-methyl-1H-indazol-7-yl)-1H-pyrazole-4-sulfonamide] | > 2500 nM | < 400 nM | – | – |
| C[C@@H]1CN(C)C(=O)N1c1ccnc(-n2cc(S(=O)(=O)Nc3cccc4cnn(C)c34)cn2)c1 [Compound I-348] | > 2500 nM | < 400 nM | – | – |
| C[C@H]1CN(C)C(=O)N1c1ccnc(-n2cc(S(=O)(=O)Nc3cccc4cnn(C)c34)cn2)c1 [Compound I-349] | > 2500 nM | < 400 nM | – | – |
| CN1C[C@H](n2cc(S(=O)(=O)Nc3cccc4cnn(C)c34)cn2)CCC1=O [Compound I-350] | > 2500 nM | > 2500 nM | – | – |
| CN1C[C@@H](n2cc(S(=O)(=O)Nc3cccc4cnn(C)c34)cn2)CCC1=O [Compound I-351] | > 2500 nM | > 2500 nM | – | – |
| O=S(=O)(c1cnn(-c2cc(C(F)(F)F)ccn2)c1)N1CCn2ncc3cccc1c32 [Compound I-355, 1-((1-(4-(trifluoromethyl)pyridin-2-yl)-1H-pyrazol-4-yl)sulfonyl)-2,3-dihydro-1H-pyrazolo[1,5,4-de]quinoxaline] | > 2500 nM | – | – | > 2500 nM |
| CC1CN(c2ccnc(-n3cc(S(=O)(=O)Nc4cccc5cnn(C)c45)cn3)c2)C1 [Compound I-356, N-(1-methyl-1H-indazol-7-yl)-1-(4-(3-methylazetidin-1-yl)pyridin-2-yl)-1H-pyrazole-4-sulfonamide] | > 2500 nM | < 400 nM | – | – |
| C=Cn1cc2cccc(NS(=O)(=O)c3cnn(-c4cc(C(F)(F)F)ccn4)c3)c2n1 [Compound I-357, 1-(4-(trifluoromethyl)pyridin-2-yl)-N-(2-vinyl-2H-indazol-7-yl)-1H-pyrazole-4-sulfonamide] | > 2500 nM | > 2500 nM | – | – |
| Cn1ncc2cccc(NS(=O)(=O)c3cnn(-c4cc(C5(O)CC(F)C5)ccn4)c3)c21 (stereo not drawn) [Compound I-358] | > 2500 nM | < 400 nM | – | – |
| Cn1ncc2cccc(NS(=O)(=O)c3cnn(-c4cc(C5(O)CC(F)(F)C5)ccn4)c3)c21 [Compound I-359] | > 2500 nM | < 400 nM | – | – |
| COC1(c2ccnc(-n3cc(S(=O)(=O)Nc4cccc5cnn(C)c45)cn3)c2)CC(C)C1 (stereo not drawn) [Compound I-362, 1-(4-(1-methoxy-3-methylcyclobutyl)pyridin-2-yl)-N-(1-methyl-1H-indazol-7-yl)-1H-pyrazole-4-sulfonamide] | > 2500 nM | < 400 nM | – | – |
| COC1(c2ccnc(-n3cc(S(=O)(=O)Nc4cccc5cnn(C)c45)cn3)c2)CC(C)C1 (stereo not drawn) [Compound I-363, 1-(4-(1-methoxy-3-methylcyclobutyl)pyridin-2-yl)-N-(1-methyl-1H-indazol-7-yl)-1H-pyrazole-4-sulfonamide] | > 2500 nM | – | < 400 nM | – |
| Cn1ncc2cccc(NS(=O)(=O)c3cnn(-c4cc(C5(F)CC(F)C5)ccn4)c3)c21 (stereo not drawn) [Compound I-366, 1-(4-(1,3-difluorocyclobutyl)pyridin-2-yl)-N-(1-methyl-1H-indazol-7-yl)-1H-pyrazole-4-sulfonamide] | > 2500 nM | – | < 400 nM | – |

The next lines start with results.

| IC50 (Avi-tagged FL MALT-1) | IC50 [1, 2] | IC50 [1, 3] | SMILES | IC50 ([1]; Homo sapiens, Jurkat) |
| --- | --- | --- | --- | --- |
| > 2500 nM | 1000 to 2500 nM | – | Cn1ncc2cccc(NS(=O)(=O)c3cnn([C@@H]4CCCN(CC(F)(F)F)C4)c3)c21 [Compound I-328] | – |
| > 2500 nM | 1000 to 2500 nM | – | Cn1ncc2cccc(NS(=O)(=O)c3cnn([C@H]4CCCN(CC(F)(F)F)C4)c3)c21 [Compound I-329] | – |
| > 2500 nM | < 400 nM | – | COC[C@](C)(F)c1ccnc(-n2cc(S(=O)(=O)Nc3cccc4cnn(C)c34)cn2)c1 [Compound I-330, (R)-1-(4-(2-fluoro-1-methoxypropan-2-yl)pyridin-2-yl)-N-(1-methyl-1H-indazol-7-yl)-1H-pyrazole-4-sulfonamide] | – |
| ≤ 400 nM | < 400 nM | – | [2H]C([2H])([2H])n1ncc2ccc(OC)c(N(C)S(=O)(=O)c3cnn(-c4cc(C(F)(F)F)ccn4)c3)c21 [Compound I-336, N-(6-methoxy-1-(methyl-d3)-1H-indazol-7-yl)-N-methyl-1-(4-(trifluoromethyl)pyridin-2-yl)-1H-pyrazole-4-sulfonamide] | – |
| ≤ 400 nM | < 400 nM | – | [2H]c1cnc(-n2cc(S(=O)(=O)Nc3cccc4cnn(C([2H])([2H])[2H])c34)cn2)cc1C(F)(F)F [Compound I-338, N-(1-(methyl-d3)-1H-indazol-7-yl)-1-(4-(trifluoromethyl)pyridin-2-yl-5-d)-1H-pyrazole-4-sulfonamide] | – |
| ≤ 400 nM | – | < 400 nM | COc1ccc2cnn(C)c2c1NS(=O)(=O)c1cnn(-c2cc(C(C)O)ccn2)c1 (stereo not drawn) [Compound I-339, 1-(4-(1-hydroxyethyl)pyridin-2-yl)-N-(6-methoxy-1-methyl-1H-indazol-7-yl)-1H-pyrazole-4-sulfonamide] | – |
| ≤ 400 nM | < 400 nM | – | COc1ccc2cnn(C)c2c1NS(=O)(=O)c1cnn(-c2cc([C@@H](C)O)ccn2)c1 [Compound I-340, (R)-1-(4-(1-hydroxyethyl)pyridin-2-yl)-N-(6-methoxy-1-methyl-1H-indazol-7-yl)-1H-pyrazole-4-sulfonamide] | – |
| ≤ 400 nM | 1000 to 2500 nM | – | C=CC(F)c1ccnc(-n2cc(S(=O)(=O)Nc3c(OC)ccc4cnn(C)c34)cn2)c1 (stereo not drawn) [Compound I-343, 1-(4-(1-fluoroallyl)pyridin-2-yl)-N-(6-methoxy-1-methyl-1H-indazol-7-yl)-1H-pyrazole-4-sulfonamide] | – |
| ≤ 400 nM | < 400 nM | – | [2H]C([2H])([2H])n1ncc2cnc(OC)c(NS(=O)(=O)c3cnn(-c4cc(C(F)(F)F)ccn4)c3)c21 [Compound I-352, N-(6-methoxy-1-(methyl-d3)-1H-pyrazolo[4,3-c]pyridin-7-yl)-1-(4-(trifluoromethyl)pyridin-2-yl)-1H-pyrazole-4-sulfonamide] | – |
| ≤ 400 nM | < 400 nM | – | [2H]c1nn(C([2H])([2H])[2H])c2c(NS(=O)(=O)c3cnn(-c4cc(C(F)(F)F)ccn4)c3)cccc12 [Compound I-353, N-(1-(methyl-d3)-1H-indazol-7-yl-3-d)-1-(4-(trifluoromethyl)pyridin-2-yl)-1H-pyrazole-4-sulfonamide] | – |
| ≤ 400 nM | < 400 nM | – | [2H]C([2H])([2H])n1ncc2cnc(OC)c(N(C)S(=O)(=O)c3cnn(-c4cc(C(F)(F)F)ccn4)c3)c21 [Compound I-354, N-(6-methoxy-1-(methyl-d3)-1H-pyrazolo[4,3-c]pyridin-7-yl)-N-methyl-1-(4-(trifluoromethyl)pyridin-2-yl)-1H-pyrazole-4-sulfonamide] | – |
